Source: PMC7714403 (JCI Insight, 2020)
Where two headings read alike, the source gives them in different places.

Experiments:
Assay in all cases: KiNativ, MOLM13 live cells
Format in all cases: cell-based
[1] = target: CDK7 (Homo sapiens, UniProt P50613); details: MOLM-13; 100 nM, 2 hours; Lys2; read-out: Inhibition vs DMSO
Description: (§1) Samples were analyzed by KiNativ in situ kinase profiling by ActivX Biosciences.

[2] = target: CSK (Homo sapiens, UniProt P41240); details: 100 nM, 2 hours; Activation Loop
Sequence of CSK (P41240 whole entry): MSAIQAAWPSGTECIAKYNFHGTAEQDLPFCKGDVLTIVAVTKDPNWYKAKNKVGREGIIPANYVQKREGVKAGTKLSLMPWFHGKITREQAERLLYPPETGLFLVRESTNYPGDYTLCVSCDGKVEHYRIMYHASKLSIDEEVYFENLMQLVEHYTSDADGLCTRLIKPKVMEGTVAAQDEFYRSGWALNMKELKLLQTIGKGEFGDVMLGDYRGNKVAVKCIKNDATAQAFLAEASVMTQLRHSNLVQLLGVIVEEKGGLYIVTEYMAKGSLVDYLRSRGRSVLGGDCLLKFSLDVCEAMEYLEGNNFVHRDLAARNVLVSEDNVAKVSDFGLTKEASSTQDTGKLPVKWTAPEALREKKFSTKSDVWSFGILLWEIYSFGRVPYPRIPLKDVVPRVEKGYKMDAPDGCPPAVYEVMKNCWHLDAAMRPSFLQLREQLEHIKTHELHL
Description: as §1

[3] = target: T1, PAN3 (Homo sapiens, UniProt Q58A45); details: MOLM-13, 2 h, 100 nM, ATP, read-out: Inhibition vs DMSO
T1 sequence (Q58A45 1-887): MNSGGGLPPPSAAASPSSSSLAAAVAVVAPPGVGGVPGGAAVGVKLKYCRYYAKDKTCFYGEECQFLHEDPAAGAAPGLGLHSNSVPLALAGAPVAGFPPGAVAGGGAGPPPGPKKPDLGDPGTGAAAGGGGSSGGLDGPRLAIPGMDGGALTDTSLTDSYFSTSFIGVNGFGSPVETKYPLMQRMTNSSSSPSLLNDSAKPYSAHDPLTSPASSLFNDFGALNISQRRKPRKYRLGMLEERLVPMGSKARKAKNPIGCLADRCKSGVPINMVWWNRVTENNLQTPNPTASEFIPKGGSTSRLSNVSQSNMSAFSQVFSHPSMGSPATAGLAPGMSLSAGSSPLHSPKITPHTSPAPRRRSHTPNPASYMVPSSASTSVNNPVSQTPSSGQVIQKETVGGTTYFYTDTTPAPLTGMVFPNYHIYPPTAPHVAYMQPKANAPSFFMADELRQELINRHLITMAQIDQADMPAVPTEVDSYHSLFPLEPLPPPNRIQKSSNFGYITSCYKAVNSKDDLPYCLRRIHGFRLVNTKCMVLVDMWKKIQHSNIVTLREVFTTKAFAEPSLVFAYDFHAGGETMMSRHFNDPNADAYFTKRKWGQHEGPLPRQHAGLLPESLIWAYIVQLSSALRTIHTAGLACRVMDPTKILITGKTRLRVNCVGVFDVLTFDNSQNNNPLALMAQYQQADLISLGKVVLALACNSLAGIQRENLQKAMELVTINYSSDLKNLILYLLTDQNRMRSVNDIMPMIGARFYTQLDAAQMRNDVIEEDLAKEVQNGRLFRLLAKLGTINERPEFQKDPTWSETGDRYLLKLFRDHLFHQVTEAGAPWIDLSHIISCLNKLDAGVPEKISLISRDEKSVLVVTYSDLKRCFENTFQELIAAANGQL
Description: as §1

[4] = target: MST2 (Homo sapiens, UniProt Q13188); details: MOLM-13; 100 nM, 2 hours; Lys1; read-out: Inhibition vs DMSO
Sequence of MST2 (Q13188 whole entry): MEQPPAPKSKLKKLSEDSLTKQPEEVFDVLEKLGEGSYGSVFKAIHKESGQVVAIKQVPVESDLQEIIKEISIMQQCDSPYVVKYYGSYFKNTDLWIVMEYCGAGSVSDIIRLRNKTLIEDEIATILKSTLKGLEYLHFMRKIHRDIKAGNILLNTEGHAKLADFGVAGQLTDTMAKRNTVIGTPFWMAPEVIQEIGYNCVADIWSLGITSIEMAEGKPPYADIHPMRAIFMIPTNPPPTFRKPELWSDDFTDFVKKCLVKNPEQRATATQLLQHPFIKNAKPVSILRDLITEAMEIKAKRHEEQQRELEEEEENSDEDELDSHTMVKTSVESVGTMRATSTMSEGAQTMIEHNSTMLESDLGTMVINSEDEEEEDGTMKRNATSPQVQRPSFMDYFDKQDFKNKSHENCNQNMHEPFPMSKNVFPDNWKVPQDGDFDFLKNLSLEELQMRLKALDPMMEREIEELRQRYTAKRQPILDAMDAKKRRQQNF
Description: as §1

[5] = target: CCRK (Homo sapiens, UniProt Q8IZL9); details: MOLM-13; 100 nM, 2 hours; Lys2; read-out: Inhibition vs DMSO
Sequence of CCRK (Q8IZL9 whole entry): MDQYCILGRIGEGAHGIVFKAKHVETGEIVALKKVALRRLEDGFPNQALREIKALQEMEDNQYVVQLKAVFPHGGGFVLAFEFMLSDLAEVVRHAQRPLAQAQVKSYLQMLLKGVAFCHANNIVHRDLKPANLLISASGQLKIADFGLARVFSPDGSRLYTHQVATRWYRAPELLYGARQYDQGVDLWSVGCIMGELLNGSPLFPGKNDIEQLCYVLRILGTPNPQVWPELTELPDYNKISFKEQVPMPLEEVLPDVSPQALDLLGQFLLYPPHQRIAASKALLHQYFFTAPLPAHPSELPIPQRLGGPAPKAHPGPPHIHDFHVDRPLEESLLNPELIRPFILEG
Description: as §1

[6] = target: T2, RSK2 domain2 (Homo sapiens, UniProt P51812); details: MOLM-13; 100 nM, 2 hours; Lys2; read-out: Inhibition vs DMSO
T2 construct: RSK2 domain2
T2 sequence (P51812 whole entry, the tested form may be a part): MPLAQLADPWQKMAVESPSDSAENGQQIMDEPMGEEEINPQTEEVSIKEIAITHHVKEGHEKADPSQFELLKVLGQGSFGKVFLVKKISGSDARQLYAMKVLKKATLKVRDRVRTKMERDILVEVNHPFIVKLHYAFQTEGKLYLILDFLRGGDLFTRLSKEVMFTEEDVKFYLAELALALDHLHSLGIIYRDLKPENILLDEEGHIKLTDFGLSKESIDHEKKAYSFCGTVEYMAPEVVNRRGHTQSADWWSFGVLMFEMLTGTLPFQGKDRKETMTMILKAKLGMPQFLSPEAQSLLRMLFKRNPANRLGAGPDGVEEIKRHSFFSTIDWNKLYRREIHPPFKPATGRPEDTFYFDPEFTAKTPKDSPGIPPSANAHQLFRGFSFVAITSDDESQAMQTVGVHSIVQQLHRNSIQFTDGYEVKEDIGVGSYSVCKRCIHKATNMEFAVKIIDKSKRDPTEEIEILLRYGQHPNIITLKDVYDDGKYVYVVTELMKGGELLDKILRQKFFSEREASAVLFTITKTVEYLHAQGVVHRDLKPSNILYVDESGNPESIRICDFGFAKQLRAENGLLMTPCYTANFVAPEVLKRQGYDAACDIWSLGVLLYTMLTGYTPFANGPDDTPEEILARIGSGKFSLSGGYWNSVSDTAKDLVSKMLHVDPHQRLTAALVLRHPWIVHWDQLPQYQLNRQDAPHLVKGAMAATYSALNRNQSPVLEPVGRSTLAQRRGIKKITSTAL
Description: as §1

[7] = target: T3, MAP2K4 (Homo sapiens, UniProt P45985); details: MOLM-13, 2 h, 100 nM
T3 sequence (P45985 1-399): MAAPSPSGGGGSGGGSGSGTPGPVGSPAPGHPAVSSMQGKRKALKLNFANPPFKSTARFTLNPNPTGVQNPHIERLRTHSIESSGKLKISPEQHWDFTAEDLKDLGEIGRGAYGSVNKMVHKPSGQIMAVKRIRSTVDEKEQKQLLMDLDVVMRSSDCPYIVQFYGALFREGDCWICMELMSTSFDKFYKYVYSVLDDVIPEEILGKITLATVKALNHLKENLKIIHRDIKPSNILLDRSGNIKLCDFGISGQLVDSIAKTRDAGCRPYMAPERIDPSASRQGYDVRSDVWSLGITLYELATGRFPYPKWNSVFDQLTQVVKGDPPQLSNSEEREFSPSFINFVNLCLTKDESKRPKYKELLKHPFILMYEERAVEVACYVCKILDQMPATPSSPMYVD
Description: as §1

[8] = target: CDK4 (Homo sapiens, UniProt P11802); details: MOLM-13; 100 nM, 2 hours; Lys2; read-out: Inhibition vs DMSO
Sequence of CDK4 (P11802 2-303 limits assumed): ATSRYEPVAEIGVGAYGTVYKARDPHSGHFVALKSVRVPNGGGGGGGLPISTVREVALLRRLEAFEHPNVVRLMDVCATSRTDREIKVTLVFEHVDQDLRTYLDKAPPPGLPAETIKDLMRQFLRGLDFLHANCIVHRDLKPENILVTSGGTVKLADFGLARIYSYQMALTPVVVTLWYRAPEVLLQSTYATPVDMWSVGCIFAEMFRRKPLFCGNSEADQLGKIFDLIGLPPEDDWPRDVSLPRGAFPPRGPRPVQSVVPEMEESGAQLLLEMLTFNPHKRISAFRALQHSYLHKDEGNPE
Description: as §1

[9] = target: CHK2 (Homo sapiens, UniProt O96017); details: MOLM-13, 2 h, 100 nM
Sequence of CHK2 (O96017 whole entry): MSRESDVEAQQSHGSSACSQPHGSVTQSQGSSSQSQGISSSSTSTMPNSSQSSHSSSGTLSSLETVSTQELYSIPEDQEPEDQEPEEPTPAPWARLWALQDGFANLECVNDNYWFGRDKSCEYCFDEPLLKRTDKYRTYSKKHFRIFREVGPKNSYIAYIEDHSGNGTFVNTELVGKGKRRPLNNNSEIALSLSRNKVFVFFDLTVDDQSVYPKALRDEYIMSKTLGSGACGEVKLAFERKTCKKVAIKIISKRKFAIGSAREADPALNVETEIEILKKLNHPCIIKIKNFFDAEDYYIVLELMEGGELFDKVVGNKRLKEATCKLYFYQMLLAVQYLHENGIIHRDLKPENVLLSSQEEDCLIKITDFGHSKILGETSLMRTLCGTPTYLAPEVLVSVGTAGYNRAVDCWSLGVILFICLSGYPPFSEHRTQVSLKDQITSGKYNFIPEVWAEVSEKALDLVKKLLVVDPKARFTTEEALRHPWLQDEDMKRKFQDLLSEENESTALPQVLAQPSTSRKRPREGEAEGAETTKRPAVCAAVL
Description: as §1

[10] = target: MAST3 (Homo sapiens, UniProt O60307); details: MOLM-13; 100 nM, 2 hours; Lys2; read-out: Inhibition vs DMSO
Description: as §1

[11] = target: YANK3 (Homo sapiens, UniProt Q86UX6); details: MOLM-13; 100 nM, 2 hours; Lys2; read-out: Inhibition vs DMSO
Description: as §1

[12] = target: NEK2 (Homo sapiens, UniProt P51955); details: MOLM-13; 100 nM, 2 hours; Lys2; read-out: Inhibition vs DMSO
Sequence of NEK2 (P51955 whole entry): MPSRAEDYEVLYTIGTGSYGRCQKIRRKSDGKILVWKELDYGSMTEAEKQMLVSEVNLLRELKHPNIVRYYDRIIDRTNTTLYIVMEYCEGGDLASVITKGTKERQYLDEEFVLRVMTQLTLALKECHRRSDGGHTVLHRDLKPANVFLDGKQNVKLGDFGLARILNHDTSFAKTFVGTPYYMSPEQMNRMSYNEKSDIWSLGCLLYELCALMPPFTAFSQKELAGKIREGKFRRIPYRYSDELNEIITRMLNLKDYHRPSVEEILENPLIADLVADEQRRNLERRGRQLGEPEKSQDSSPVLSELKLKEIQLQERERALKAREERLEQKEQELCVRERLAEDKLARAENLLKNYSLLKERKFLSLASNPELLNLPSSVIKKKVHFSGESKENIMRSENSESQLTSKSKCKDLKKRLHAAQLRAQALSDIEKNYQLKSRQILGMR
Description: as §1

[13] = target: MAP4K5 (Homo sapiens, UniProt Q9Y4K4); details: MOLM-13, 2 h, 100 nM
Sequence of MAP4K5 (Q9Y4K4 whole entry): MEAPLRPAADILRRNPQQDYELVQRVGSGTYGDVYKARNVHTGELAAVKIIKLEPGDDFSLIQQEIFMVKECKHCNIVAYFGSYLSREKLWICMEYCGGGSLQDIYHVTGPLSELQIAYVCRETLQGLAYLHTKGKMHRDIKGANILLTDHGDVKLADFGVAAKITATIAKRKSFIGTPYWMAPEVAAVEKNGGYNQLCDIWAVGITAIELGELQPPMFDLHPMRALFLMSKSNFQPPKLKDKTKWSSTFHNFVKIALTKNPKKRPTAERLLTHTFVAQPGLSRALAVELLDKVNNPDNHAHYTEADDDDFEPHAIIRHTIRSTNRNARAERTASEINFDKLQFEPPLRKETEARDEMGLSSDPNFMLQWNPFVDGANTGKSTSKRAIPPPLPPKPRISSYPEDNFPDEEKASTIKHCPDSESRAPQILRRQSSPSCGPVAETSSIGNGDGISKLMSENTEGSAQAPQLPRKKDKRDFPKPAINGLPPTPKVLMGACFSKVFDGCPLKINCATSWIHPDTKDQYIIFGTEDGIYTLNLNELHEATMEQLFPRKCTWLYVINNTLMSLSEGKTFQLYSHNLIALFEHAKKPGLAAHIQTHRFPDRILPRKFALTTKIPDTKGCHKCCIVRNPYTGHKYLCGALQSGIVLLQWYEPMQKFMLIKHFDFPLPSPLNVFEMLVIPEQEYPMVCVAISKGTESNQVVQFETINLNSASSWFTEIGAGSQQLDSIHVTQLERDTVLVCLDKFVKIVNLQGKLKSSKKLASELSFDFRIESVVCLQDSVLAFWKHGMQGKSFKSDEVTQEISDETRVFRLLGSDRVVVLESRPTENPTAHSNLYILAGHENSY
Description: as §1

[14] = target: T4, IRAK4 (Homo sapiens, UniProt Q9NWZ3); details: 100 nM, 2 hours
T4 sequence (Q9NWZ3 1-460): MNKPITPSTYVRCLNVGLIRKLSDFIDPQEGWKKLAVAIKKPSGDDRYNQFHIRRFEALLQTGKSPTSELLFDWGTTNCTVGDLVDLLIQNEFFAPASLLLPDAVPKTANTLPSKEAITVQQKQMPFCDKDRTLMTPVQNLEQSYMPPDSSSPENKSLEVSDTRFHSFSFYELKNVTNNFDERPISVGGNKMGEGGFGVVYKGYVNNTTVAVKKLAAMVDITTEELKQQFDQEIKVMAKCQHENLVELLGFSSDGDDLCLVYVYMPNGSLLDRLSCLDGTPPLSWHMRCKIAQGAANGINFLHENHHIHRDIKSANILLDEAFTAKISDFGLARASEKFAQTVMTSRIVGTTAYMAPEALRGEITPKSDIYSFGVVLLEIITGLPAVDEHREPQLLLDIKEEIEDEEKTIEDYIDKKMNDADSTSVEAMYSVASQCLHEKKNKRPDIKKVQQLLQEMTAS
Description: as §1

[15] = target: HPK1 (Homo sapiens, UniProt Q92918); details: MOLM-13, 2 h, 100 nM
Sequence of HPK1 (Q92918 whole entry): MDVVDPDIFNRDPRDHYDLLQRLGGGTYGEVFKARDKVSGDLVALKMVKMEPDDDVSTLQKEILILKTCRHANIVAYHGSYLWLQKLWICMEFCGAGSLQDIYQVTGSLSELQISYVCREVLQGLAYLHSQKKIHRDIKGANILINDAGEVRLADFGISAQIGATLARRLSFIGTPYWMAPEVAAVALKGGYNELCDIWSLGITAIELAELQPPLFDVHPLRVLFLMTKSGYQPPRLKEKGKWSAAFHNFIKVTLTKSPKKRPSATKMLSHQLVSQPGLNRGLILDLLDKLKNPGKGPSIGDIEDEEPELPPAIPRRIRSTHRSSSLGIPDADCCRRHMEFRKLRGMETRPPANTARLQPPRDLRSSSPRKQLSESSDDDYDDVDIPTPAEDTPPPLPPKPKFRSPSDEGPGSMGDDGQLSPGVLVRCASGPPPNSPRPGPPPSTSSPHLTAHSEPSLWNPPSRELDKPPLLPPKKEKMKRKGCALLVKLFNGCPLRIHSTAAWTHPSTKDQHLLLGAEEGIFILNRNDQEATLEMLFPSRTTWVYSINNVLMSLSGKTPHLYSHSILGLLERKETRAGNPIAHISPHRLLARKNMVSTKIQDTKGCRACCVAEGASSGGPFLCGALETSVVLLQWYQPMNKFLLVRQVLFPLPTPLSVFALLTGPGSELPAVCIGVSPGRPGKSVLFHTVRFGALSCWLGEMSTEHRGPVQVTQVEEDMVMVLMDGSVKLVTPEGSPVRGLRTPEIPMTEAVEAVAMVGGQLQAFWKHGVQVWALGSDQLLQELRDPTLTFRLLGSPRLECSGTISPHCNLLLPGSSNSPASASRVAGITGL
Description: as §1

[16] = Lys1, read-out: Inhibition vs DMSO
[17] = Lys2, read-out: Inhibition vs DMSO

CN1CCN(Cc2ccc(Nc3ncc(Cl)c(Nc4ccccc4S(=O)(=O)N(C)C)n3)cc2)CC1 [TP-0903]
inhibition at 0.1 µM [1]: 86.1%
Inhibition vs DMSO [2]: -5.0%
inhibition at 0.1 µM ([3]; IQKSSNFGYITSCYK): 11.2%
inhibition at 0.1 µM ([3]; VMDPTKILITGK): -0.5%
inhibition at 0.1 µM [4]: 7.5%
inhibition at 0.1 µM [5]: 68.3%
inhibition at 0.1 µM [6]: -47.6%
inhibition at 0.1 µM ([7]; Activation Loop, read-out: Inhibition vs DMSO): 4.3%
inhibition at 0.1 µM [7, 16]: -38.6%
inhibition at 0.1 µM [7, 17]: 4.1%
inhibition at 0.1 µM [8]: 9.8%
inhibition at 0.1 µM [9, 16]: 11.3%
inhibition at 0.1 µM [9, 17]: -23.4%
inhibition at 0.1 µM [10]: -22.3%
inhibition at 0.1 µM [11]: -4.7%
inhibition at 0.1 µM [12]: -4.6%
inhibition at 0.1 µM [13, 16]: 54.8%
inhibition at 0.1 µM [13, 17]: 42.9%
Inhibition vs DMSO ([14]; Lys1): 13.2%
Inhibition vs DMSO ([14]; Lys2): 18.7%
inhibition at 0.1 µM [15, 16]: 58.7%
inhibition at 0.1 µM [15, 17]: 55.7%
